{
  "source": "patent US20110319384A1",
  "about": "“Pharmaceutical Compositions” (priority 2005, published 2011)",
  "key": {"[1]": {"system": "non-depressed patients with GAD", "conditions": "for change from baseline in HAM-A total score, observed case analysis: significant"}, "patients with GAD": {"system": "patients with GAD", "conditions": "hypothesis to be tested"}, "[2]": {"system": "patients with Social Anxiety Disorder (SAD)"}},
  "note": "Where two headings read alike, the source gives them in different places.",
  "data": [
    {"compound": "OCCOCCN1CCN(C2=Nc3ccccc3Sc3ccccc32)CC1", "note": "[quetiapine, 11-[4-[2-(2-hydroxyethoxy)ethyl]-1-piperazinyl]-dibenzo[b,f][1,4]thiazepine]", "values": [
      {"measurement": "reduction in HAM-A psychic anxiety subscale, observed cases", "setting": "[1]; Week 2, placebo −3.0", "value": "−6.6"},
      {"measurement": "change from baseline in HAM-A total score, observed case analysis", "setting": "[1]; Week 2, placebo −5.9", "value": "−11.1"},
      {"measurement": "reduction in HAM-A psychic anxiety subscale, observed cases", "setting": "[1]; Week 4, placebo −4.0", "value": "−7.8"},
      {"measurement": "change from baseline in HAM-A total score, observed case analysis", "setting": "[1]; Week 4, placebo −8.6", "value": "−13.7"},
      {"measurement": "mean decrease from baseline in HAM-A total score", "setting": "[1]; baseline to week 6, ITT, LOCF, placebo about 9, difference not significant, mean dose 125 mg/day", "value": "about 12"},
      {"measurement": "AIMS, SAS, or BARS scores versus placebo", "setting": "[1]; in vivo", "value": "no statistically significant differences"},
      {"measurement": "tolerability", "setting": "[1]; in vivo", "value": "generally well tolerated"},
      {"measurement": "patients who discontinued treatment because of AEs", "setting": "[1]; of 19 in the group", "value": "Five"},
      {"measurement": "remission rate at endpoint (HAM-A total score ≦7)", "setting": "[1]; placebo 21.1%, not statistically significant", "value": 42.1, "unit": "%"},
      {"measurement": "response rate at endpoint (≧50% reduction in HAM-A total score)", "setting": "[1]; placebo 36.8%, not statistically significant", "value": 57.9, "unit": "%"},
      {"measurement": "reduction from baseline on the CGI-S", "setting": "[1]; placebo −1.05", "value": "−1.37"},
      {"measurement": "reduction from baseline on the Hospital Anxiety and Depression (HAD) anxiety subscale", "setting": "[1]; placebo −3.16", "value": "−3.79"},
      {"measurement": "reduction from baseline on the HAM-A somatic subscale", "setting": "[1]; placebo −4.4", "value": "−5.2"},
      {"measurement": "Somnolence: severity of AEs, time of first instance, withdrawals due to AE of somnolence", "setting": "patients with GAD; compared to placebo", "value": "generally mild, occurs early in"},
      {"measurement": "Change from randomization in MADRS total score at Day 57", "setting": "patients with GAD; depressive symptoms in GAD, vs placebo", "value": "Quetiapine is more effective"},
      {"measurement": "Adverse events related to discontinuation; change in Discontinuation-Emergent Signs and Symptoms total score at Day 64 and Day 71", "setting": "patients with GAD; discontinuation symptoms", "value": "Quetiapine does not have"},
      {"measurement": "Change from normal to Clinically Important in Physical Examinations; Laboratory values; Vital signs; ECGs", "setting": "patients with GAD; once daily up to 300 mg/day", "value": "300 mg/day is safe and well"},
      {"measurement": "Change from randomization in Q-les-Q Item 15 (Satisfaction with medication) at Day 57", "setting": "patients with GAD; patient satisfaction, vs placebo", "value": "Quetiapine is more effective"},
      {"measurement": "Change from randomization in HAM-A total score, HAM-A psychic cluster, HAM-A somatic cluster and CGI-S score at Day 8", "setting": "patients with GAD; patients with GAD, Day 8", "value": "anti-anxiety effect by Day 8"},
      {"measurement": "Change from randomization in Q-les-Q total score and Q-les-Q Item 16 (Overall life satisfaction) at Day 57", "setting": "patients with GAD; quality of life, vs placebo", "value": "Quetiapine is more effective"},
      {"measurement": "HAM-A Response (decrease from randomization total score of ≧50%) at Day 8", "setting": "patients with GAD; response rate vs placebo, Day 8", "value": "Quetiapine has a greater"},
      {"measurement": "HAM-A Response (decrease from randomization total score of ≧50%) at Day 57", "setting": "patients with GAD; response rate vs placebo, Day 57", "value": "Quetiapine has a greater"},
      {"measurement": "Adverse events of nausea or vomiting", "setting": "patients with GAD; vs placebo", "value": "placebo levels of nausea and"},
      {"measurement": "Adverse events related to EPS (including akathisia); change in SAS and BARS scores at Day 57", "setting": "patients with GAD; vs placebo", "value": "placebo levels of EPS"},
      {"measurement": "HAM-A Remission (HAM-A total score ≦7) at Day 57", "setting": "patients with GAD; vs placebo, Day 57", "value": "Quetiapine is better than"},
      {"measurement": "Change from randomization in CGI-S score, CGI-I (much or very much improved), HAM-A psychic cluster and HAMA somatic cluster at Day 57", "setting": "patients with GAD; vs placebo, across anxiety symptoms, Day 57", "value": "Quetiapine is more effective"},
      {"measurement": "BSPS scores versus placebo at baseline or endpoint", "setting": "[2]; in vivo", "value": "no significant differences"},
      {"measurement": "SPIN or SDI scores versus placebo at baseline or endpoint", "setting": "[2]; in vivo", "value": "no significant difference"},
      {"measurement": "mean CGI-I scores at endpoint versus placebo", "setting": "[2]; in vivo", "value": "no significant difference"},
      {"measurement": "most frequent side effects", "setting": "[2]; in vivo", "value": "drowsiness, dizziness, and nausea"},
      {"measurement": "serious adverse events", "setting": "[2]; in vivo", "value": "No serious adverse events were reported"},
      {"measurement": "patients who scored a 1 or 2 on the CGI-I scale", "setting": "[2]; placebo 0%", "value": 40, "unit": "%"},
      {"measurement": "patients experiencing a ≧50% drop in BSPS score at endpoint compared with baseline", "setting": "[2]; placebo 0%, mean final dose 147 mg twice a day", "value": 20, "unit": "%"}
    ]}
  ]
}
